Results: patent US20210338647A1, “Combination of Acetylcholinesterase Inhibitor and 5-HT4 Receptor Agonist As Neuroprotective Agent In the Treatment of Neurodegenerative Diseases” (UNIVERSITE DE CAEN NORMANDIE, priority 2018, published 2021)
Marks after values point to notes of the source that are not given here.

Legend:
5XFAD mice [1] = assay: Amyloid plaque number (thioflavin T staining) in brain sections of 5XFAD mice; format: in vivo, mouse; settings: 1 mg/kg twice a week for 3 months, versus controls
Description: (§1) 5XFAD mice received chronic treatments with drugs or vehicle according to 2 different protocols. In each experiment, drugs or vehicle solution were administered i.p. twice a week (1 mg/kg). In “Protocol 1”, mice (n=6-7 mice per group) were treated with compounds for two months, from 2 to 4 months of age. In “Protocol 2”, mice (n=7) were treated with compounds for three months, from 1 month to 4 months of age. At the end of each protocol, mice were anesthetized with a mixture of 100 mg/kg ketamine and 10 mg/kg xylazine in saline solution and perfused transcardially with PBS. Brains were quickly isolated on ice, the olfactory bulbs and cerebellum removed and the two hemispheres divided. One hemisphere was frozen on dry ice and stored at −80° C. for biochemical analysis, while the other was post-fixed in 4% PFA for immunohistochemistry (IHC).
Thirty-micrometer-thick sections were cut using a vibratome (Microm HM 650V, Thermo Scientific, Saint Herblain, France) and stored in cryoprotectant medium at −20° C. […]
Images were acquired with an Axiolmager Z1 microscope (Carl Zeiss S.A.S., Marly le Roi, France). […] GFAP expression was quantified using Image J software and results are expressed as area fractions. […]

[2] = test system: rat primary hippocampal neurons injured with Aβ 1-42; assay: Survival of MAP-2 neurons in primary culture of hippocampal neurons injured with Aβ 1-42; format: cell-based; settings: for Survival: Aβ1-42 20 μM/2.5 μM, percentage of control, Example 3
Description: Rat hippocampal neurons were cultured as described by Callizot et al. (2013) J. Neurosci. Res. 91706-716. Pregnant female rats of 17 days gestation (Rats Wistar; Janvier Labs France) were killed using a deep anesthesia with CO2 chamber followed by a cervical dislocation. Then, fetuses were removed from the uterus and immediately placed in ice-cold L15 Leibovitz medium with a 2% penicillin (10,000 U/ml) and streptomycin (10 mg/ml) solution (PS) and 1% bovine serum albumin (BSA). Hippocampal neurons were treated for 20 min at 37° C. with a trypsin-EDTA solution at a final concentration of 0.05% trypsin and 0.02% EDTA. The dissociation was stopped by adding Dulbecco's modified Eagle's medium (DMEM) with 4.5 g/l of glucose, containing DNAse I grade 11 (final concentration 0.5 mg/ml) and 10% fetal calf serum (FCS). Cells were mechanically dissociated by three forced passages through the tip of a 10-ml pipette and then centrifuged at 515×g for 10 min at 4° C. The supernatant was discarded, and the pellet was resuspended in a defined culture medium consisting of Neurobasal medium with a 2% solution of B27 supplement, 2 mmol/l of L-glutamine, 2% of PS solution, and 10 ng/ml of brain-derived neurotrophic factor (BDNF). Viable cells were counted in a Neubauer cytometer, using the trypan blue exclusion test. […] The medium was changed every 2 days.
The hippocampal neurons were exposed with Aβ solutions (see below) after 17 days of culture. The Aβ1-42 preparation was done following the procedure described by Callizot et al. (2013) J. Neurosci. Res. 91706-716. Briefly, Aβ1-42 peptide was dissolved in the defined culture medium mentioned above, at an initial concentration of 40 μM. This solution was gently agitated for 3 days at 37° C. in the dark and immediately used after being properly diluted in culture medium to the concentrations used (20 μM (plate 1) or 2.5 μM (plate 2) corresponding to 2 μM or 0.25 μM of oligomers (AβO) respectively). […]
The compound was preincubated one hour before […] application. The following conditions were assessed:
After permeabilization with 0.1% of saponin, cells were incubated for 2 h with:
a) chicken polyclonal antibody anti microtubule-associated-protein 2 (MAP-2), diluted at 1/1000 in PBS containing 1% fetal calf serum and 0.1% of saponin (this antibody allows the specific staining of neuronal cell bodies and neurites; and allow the study of neuronal cell death and neurite network).
For each condition, 30 pictures (representative of the whole well area) per well were taken using ImageXpress (Molecular Devices) at 20× magnification. All images were taken with the same acquisition parameters. Analyses were performed automatically by using Custom Module Editor (Molecular Devices).
Total number of neurons (neuron survival, number of MAP-2 positive neurons)
Rat hippocampal neurons were cultured as described by Callizot et al. (2013) J. Neurosci. Res. 91:706-716. Briefly, pregnant female rats of 17 days gestation (Rats Wistar; Janvier Labs France) were killed using a deep anesthesia with CO2 chamber and a cervical dislocation. Then, fetuses were removed from the uterus and immediately placed in ice-cold L15 Leibovitz medium with a 2% penicillin (10,000 U/ml) and streptomycin (10 mg/ml) solution (PS) and 1% bovine serum albumin (BSA). The hippocampi were treated for 20 min at 37° C. with a trypsin-EDTA solution at a final concentration of 0.05% trypsin and 0.02% EDTA.

5XFAD mice [3] = assay: Astrogliosis (GFAP staining) in brain sections of 5XFAD mice; format: in vivo, mouse; settings: 1 mg/kg twice a week for 3 months, versus controls
Description: as §1
Thirty-micrometer-thick sections were cut using a vibratome (Microm HM 650V, Thermo Scientific, Saint Herblain, France) and stored in cryoprotectant medium at −20° C. For the labeling of amyloid plaques, free-floating tissue sections of frontal cortex, hippocampus and entorhinal cortex (coordinates from the bregma: frontal cortex=1.98 mm, hippocampus=−1.94 mm, entorhinal cortex=−3.08 mm) were extensively washed in PBS and then incubated in blocking solution (PBS; 3% BSA; 0.1% Triton X-100) for 1 h. Sections were stained with Hoechst dye (1:1000, Life Technologies, Saint Aubin, France) for 15 minutes to detect cell nuclei and then with freshly prepared thioflavin T solution (#T3516-5G, Sigma-Aldrich) (final concentration: 0.01 mg/ml in blocking buffer) for 15 minutes. After washing in 70% ethanol for 5 minutes, samples were mounted on poly-lysine slides with coverslips. For GFAP (glial fibrillary acidic protein) staining, free-floating brain sections were blocked as before and incubated with polyclonal rabbit anti-GFAP (1:1000, Z0334, Dako, Les Ullis, France) at 4° C. overnight. After thioflavin T staining and washing with 70% ethanol, the secondary Alexafluor 594 goat anti-rabbit antibody (1:1000, A11012, Life Technologies) was added for 2 h. PBS washes and mounting were performed as described before.
Images were acquired with an Axiolmager Z1 microscope (Carl Zeiss S.A.S., Marly le Roi, France). Analysis of thioflavin T staining was performed blindly and data are presented as the mean number of particles per mm^2 in two to three tissue sections from the same brain area/animal (Image J software). GFAP expression was quantified using Image J software and results are expressed as area fractions.
(§2) 28 female 5XFAD mice (C57BL/6J genetic background) were used in this study. Mice received vehicle or compounds (1 mg/kg) i.p., twice a week for three months, from 1 to 4 months of age.

5XFAD mice [4] = assay: Aβ42 concentration in cerebrospinal fluid of chronically treated 5XFAD mice; format: in vivo, mouse; settings: 1 mg/kg twice a week for 3 months, versus controls
Description: as §1, §2

5XFAD mice [5] = assay: Novel object recognition test in chronically treated 5XFAD mice; format: in vivo, mouse; settings: 5XFAD females; 1 mg/kg twice a week for 3 months; 24 h interval between training and test
Description: as §1, §2

Compound | Amyloid plaque number in hippocampus (5XFAD mice [1]) | Lowest protective active dose: neuronal survival ([2]; Aβ 1-42 injured hippocampal neurons, Example 3 step 1) [nM] | GFAP staining in frontal cortex (5XFAD mice [3]) | GFAP staining in hippocampus (5XFAD mice [3]) | Aβ42 concentration in cerebrospinal fluid (CSF) (5XFAD mice [4]) | Recognition memory: time exploring novel versus familiar object (NOR test) (5XFAD mice [5]) | Lowest active dose in this model ([2]; Aβ 1-42 injured hippocampal neurons, any parameter of Table 7) [nM] | Survival ([2]; donepezil 100 pM) [%] | Survival ([2]; donepezil 1 nM) [%*] | Survival ([2]; donepezil 10 nM) [%*] | Survival ([2]; donepezil 50 nM) [%*] | Survival ([2]; donepezil 100 nM) [%*] | Survival ([2]; donepezil 500 nM) [%*] | Survival ([2]; donepezil 1 μM) [%*] | Survival ([2]; donepezil 10 μM) [%*]
CCCCN1CCC(CCC(=O)c2cc(Cl)c(N)cc2OC)CC1 [RS67333, 1-(4-amino-5-chloro-2-methoxy-phenyl)-3-(1-butyl-4-piperidinyl)-1-propanone] | not significantly different compared to controls | 50 | not significantly different compared to controls | not significantly different compared to controls | not significantly different compared to controls | reverses cognitive impairment |  |  |  |  |  |  |  |  | 
COc1cc2c(cc1OC)C(=O)C(CC1CCN(Cc3ccccc3)CC1)C2 (stereo not drawn) [Donepezil] |  |  |  |  |  |  | 1 | 69 | 75 | 86 | 91 | 90 | 86 | 85 | 85
